In PubChem BioAssay (NCI):
Several values for one entry are separate records, joined by “and”; a condition that tells them apart may be missing. Identical values can stand only once.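 Assay format: 96-well plates, 48-hour exposure. GI50 = concentration required for 50% inhibition of growth. TGI marks complete inhibition of growth.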

Tests used:
Assay in all cases: growth of human tumour cells (NCI), 48 h
[1] = tested on: OVCAR-5 ovarian
[2] = tested on: SR leukemia
[3] = tested on: SNB-75 CNS
[4] = tested on: TK-10 renal
[5] = tested on: NCI-H522 lung
[6] = tested on: COLO 205 colon
[7] = tested on: 786-0 renal
[8] = tested on: LOX IMVI melanoma
[9] = tested on: A498 renal
[10] = tested on: RXF 393 renal

| Structure (SMILES) | TGI [1] [µM] | TGI [2] | TGI [3] [µM] | TGI [4] | TGI [5] | TGI [6] | TGI [7] | TGI [8] | TGI [9] [µM] | TGI [10] | GI50 [8] [µM] | GI50 [1] [µM] | GI50 [2] [µM] | GI50 [4] [µM] | GI50 [6] [µM] | GI50 [7] [µM] | GI50 [10] [µM] | GI50 [3] [µM] | GI50 [9] [µM] | GI50 [5] [µM] |
| --- | --- | --- | --- | --- | --- | --- | --- | --- | --- | --- | --- | --- | --- | --- | --- | --- | --- | --- | --- | --- |
| CC(C#N)c1cn(S(=O)(=O)c2ccccc2)c2ccccc12 (stereo unspecified) | > 100 | > 100 µM | 38.2 | > 100 µM | 94.9 µM | > 100 µM | > 100 µM |  |  |  |  |  |  |  |  |  |  |  |  |  |
| C/C(CC(=O)CCCC(=O)Nc1ccc(Cl)cc1Cl)=N/NC(=O)CC#N | > 100 |  | > 100 | > 100 µM |  | > 100 µM | > 100 µM | > 100 µM | > 100 | > 100 µM |  |  |  |  |  |  |  |  |  |  |
| C/C(=N\O)c1sc(-n2nc(-c3ccccc3)cc2-c2ccccc2)nc1C |  | 28.6 µM | > 31.6 |  | 17 µM |  | 15.8 µM | 18 µM | > 31.6 |  |  |  |  |  |  |  |  |  |  |  |
| CC[O-].CC[O-].[O-]c1ccccc1C=Nc1ccccc1.[O-]c1ccccc1C=Nc1ccccc1.[Ti+4] | > 100 | > 100 µM |  | > 100 µM |  | > 100 µM | > 100 µM | > 100 µM |  | > 100 µM | 1.92 | > 100 | 26.9 | > 100 | 96.8 | > 100 | > 100 |  |  |  |
| CC(=O)[CH-]C(=O)c1ccccc1.CC(=O)[CH-]C(=O)c1ccccc1.O=C([O-])C[O-].O=C([O-])C[O-].[Ti+4] | > 100 |  | 56.7 |  | 70.5 µM |  | > 100 µM | > 100 µM | > 100 |  | 41.2 | > 100 |  |  |  | 71.7 |  | 18.6 | > 100 | 17.5 |
| O=S(=O)(/C=C/C=C/S(=O)(=O)c1ccccc1)c1ccccc1 | 5.28 | 2.29 µM and 0.934 µM | 26.8 | 2.95 µM and 2.69 µM | 0.728 µM and 0.601 µM | 2.77 µM and 2.71 µM | 1.1 µM and 2.22 µM | 2.42 µM and 3.33 µM |  | 0.809 µM and 1.45 µM | 1.42 | 1.9 |  | 1.35 | 1.02 | 0.956 |  | 13.9 |  | 0.196 |
| COc1ccc(NC(=O)C(=O)C(CC2C(=O)NC(=S)NC2=O)C(=O)c2ccc3ccccc3c2)c([N+](=O)[O-])c1 (stereo unspecified) | > 100 |  | > 100 | > 100 µM | > 100 µM | > 100 µM | > 100 µM | > 100 µM | > 100 |  |  |  |  |  |  |  |  |  |  |  |
| C[C@H]1CCC/C=C/[C@@H]2C[C@H](O)C[C@H]2[C@H](O)[C@H](S(=O)c2ccc(O)cc2)CC(=O)O1 (stereo partly specified) |  |  | > 100 | 2.18 µM | 3.34 µM | 0.0544 µM | 0.0793 µM | 0.0533 µM | 0.0716 | 0.061 µM | 0.0208 | 0.0613 |  | 0.0392 | 0.0183 | 0.0251 | < 0.0106 | < 0.018 | 0.0307 | 0.141 |
| CC(=O)O[C@H](C[C@H](C(C)C)N(C)C(=O)[C@@H](NC(=O)[C@H]1CCCCN1C)C(C)C)c1nc(C(=O)N[C@@H](Cc2ccccc2)C[C@H](C)C(=O)O)c(C)s1 | > 25 | > 25 µM | > 25 | > 25 µM | > 25 µM | 0.00595 µM | > 25 µM | > 25 µM | < 0.0025 |  | < 0.0025 | 0.0085 | < 0.0025 | > 25 | < 0.0025 | < 0.0025 |  | < 0.0025 | < 0.0025 | < 0.0025 |
